The nature of data set [1]: Inhibition of human huntingtin N548 mutant expressed in rat ST14A cells assessed as decrease in cell death. Type of data set: cell-based.
Data set [2] can be described thus: Cytotoxicity against rat ST14A cells transfected with human htt gene. The settings on record: read-out: TC50 (the source's name). It counts as cell-based.
A short description of data set [3]: Inhibition of human huntingtin Q103 mutant expressed in rat PC12 cells assessed as decrease in cell death. It counts as cell-based, PC-12.
Data set [4] concerns Saccharomyces cerevisiae. Nature of the data set: Inhibition of huntingtin in Saccharomyces cerevisiae coexpressing exon 1 fragments with polyQ region Huntington disease (HD) model assessed as increase in cell viability.
In data set [5] the test system is neuronal. The data set is described as follows: Inhibition of huntingtin mutant in Caenorhabditis elegans ASH neuronal cell Huntington disease model assessed as cell viability. It counts as cell-based.
Data set [6] deals with ST14A. Nature of the data set: Inhibition of cell death in rat ST14A cells assessed as cell viability. It counts as functional, cell-based.
Data set [7] deals with PC-12. Nature of the data set: Inhibition of human huntingtin Q103 mutant expressed in rat PC12 cells assessed as decrease in cell death relative to control. It counts as cell-based. Also on record: concentration or dose not given beside the values.
Data set [8] has as its system Brain. Nature of the data set: Inhibition of medium spiny neuron degeneration in rat brain slice Huntington disease (HD) model after 4 days. It counts as functional, tissue-based.
Data set [9] concerns ST14A. The data set is described as follows: Inhibition of apoptosis in rat ST14A cells transfected with human htt gene assessed as inhibition of caspase 3 cleavage by Western blot method. Type of data set: functional, cell-based. (Immunoblotting shows a protein as a band on a membrane.)
For data set [10], the system named is ST14A. The data set is described as follows: Inhibition of apoptosis in rat ST14A cells transfected with human htt gene assessed as inhibition of caspase 7 cleavage by Western blot method. Type of data set: functional, cell-based.
Data set [11] deals with ST14A. Nature of the data set: Inhibition of rat ST14A cell death expressing human huntingtin N548 mutant assessed as inhibition of cell death at 50 uM after 6 hrs by fluorimetry. Type of data set: functional, cell-based.
For data set [12], the system named is ST14A. The data set is described as follows: Inhibition of rat ST14A cell death assessed as inhibition of cell death at 50 uM after 6 hrs by fluorimetry. Type of data set: functional, cell-based.

SMILES strings stand for the structures. Activity calls are given as the source filed them. No cut-off for these calls is given here.

The term EC50 denotes the midpoint of the concentration-response curve. As usually defined, the inhibition is the share of the control response that was lost under treatment.

With `CC1(C)C(C=C(Cl)Cl)C1C(=O)C1=C(O)CCCC1=O` (stereo not drawn), the EC50 was 10 µM in data set [1] and “Not Active” in data set [3] (pc-12). Besides, the CC50 in [2] was determined as 79 µM. Besides, the inhibition entry in [4] and in data set [5] was “inactive” throughout.
For the molecule `O=C(Cc1cccs1)/C(=N/NC(=O)c1cccc(Br)c1)C(F)(F)F`, the results for the EC50 in data set [1] and in data set [3] (pc-12) were 5 µM and “Not Active”, respectively. The inhibition result in data set [6], in data set [4] and in data set [5] was “inactive” throughout. In addition, the CC50 in data set [2] was 48 µM.
Take `CCC1CN2CCc3cc(OC)c(OC)cc3C2CC1CC1c2cc(OC)c(OC)cc2CCN1C(=O)c1ccco1` (stereo not drawn): the EC50 in data set [1] was 6 µM; in [3] (pc-12), “Not Active”. In addition, in [2], the CC50 came out at 42 µM. Moreover, the inhibition entry in data set [4] and in data set [5] was “inactive” in each case.
On to `CC1=NC(Nc2nc(C)c3cc(C)c(C)cc3n2)=NC(C)(C)C1`, for which the results for the EC50 in data set [1] and in [3] (pc-12) were 7 µM and “Not Active”, respectively. For the same molecule, the CC50 in [2] amounted to 32 µM. Further, the inhibition result in data set [4] and in [5] was “inactive” each time.
As to `COc1ccc(CN(CCC2(c3ccccc3)CCOC(C)(C)C2)C(=O)c2ccco2)cc1OC` (stereo not drawn), the figures for the EC50 in [1] and in [3] (pc-12) were 5 µM and “Not Active”, respectively. Moreover, in data set [2], the CC50 worked out at 50 µM. Moreover, the inhibition result in [4] and in data set [5] was “inactive” throughout.
On to `CCCCCCCCCC(=O)Oc1cc(-c2ccccc2)nn1-c1cccc(C)c1`, for which the concentration giving a half-maximal response (EC50) in data set [1] worked out at 10 µM; in [3] (PC-12, read-out: EC50) it was 100 µM. For the same molecule, the CC50 in [2] amounted to 75 µM. In [7], the inhibition was found to be 23%. Further, the inhibition entry in data set [4], in data set [5] and in data set [8] was “inactive” throughout.
Regarding `CC(C)C1=CCC2C(=C1)CCC1[C@@]2(C)CCC[C@]1(C)C(=O)O` (stereo partly drawn), the EC50 in data set [1] is 7 µM; in [3] (pc-12), “Not Active”. Further, the CC50 in [2] is 53 µM. Moreover, the inhibition result in data set [4] and in data set [5] was “inactive” throughout.
As to `CCCc1ccc(CC2=C(O)C(=O)c3ccccc3C2=O)cc1`, the EC50 in data set [1] was 7 µM; in data set [3] (pc-12) it was “Not Active”. For the same molecule, the CC50 in data set [2] was 65 µM. In addition, the inhibition result in data set [4] and in data set [5] was “inactive” in each case.
`COc1cc2c(cc1OC)C(C)N(C(=O)NCc1ccccc1)CC2` (stereo not drawn): the EC50 was 3 µM in [1] and “Not Active” in data set [3] (pc-12). The CC50 in [2] came to 47 µM. The inhibition result in data set [4] and in data set [5] was “inactive” each time.
With `CCCCc1ccc(C(=O)N(CCC(=O)N2CCC(Cc3ccccc3)CC2)Cc2ccco2)cc1`, the EC50 in data set [1] worked out at 5 µM; in data set [3] (PC-12, read-out: EC50) it was 60 µM. Moreover, the CC50 in data set [2] is 41 µM. Further, the inhibition in data set [7] came to 27%. In addition, the inhibition result in data set [4] and in data set [5] was “inactive” in each case.
On to `CCCc1cc(OC(=O)c2ccccc2F)n(-c2cccc(F)c2)n1`, for which the EC50 was 12 µM in data set [1] and 145 µM in data set [3] (PC-12, read-out: EC50). Besides, the inhibition entry in data set [6], in data set [4] and in data set [10] was “inactive” throughout. In addition, the CC50 in data set [2] came to 235 µM. Further, the inhibition in [7] worked out at 21%. Further, in data set [5], the INH amounted to 3 mM. The inhibition entry in data set [8] and in data set [9] was “Active” in each case.
For the molecule `COc1ccccc1C(CCN(C(C)=O)C(C)c1ccccc1)C1CCC(C)(C)OC1` (stereo not drawn), the EC50 in [1] is 5 µM; in [3] (pc-12), “Not Active”. The CC50 in data set [2] came out at 47 µM. The inhibition entry in [4] and in [5] was “inactive” throughout.
On to `Cc1ccc(-c2nc(NS(=O)(=O)c3ccc(Cl)cc3)sc2C)cc1`, for which the values for the concentration for a half-maximal effect (EC50) in [1] and in data set [3] (pc-12) were 11 µM and “Not Active”, respectively. Besides, the CC50 in data set [2] came to 42 µM. Moreover, the inhibition entry in data set [4] and in data set [5] was “inactive” each time.
With `NNc1nnc(-c2ccccc2)c2ccccc12`, the EC50 in data set [1] came out at 5 µM; in data set [3] (PC-12, read-out: EC50) it was 8 µM. In addition, the CC50 in [2] was determined as 102 µM. Also, the inhibition in data set [7] was found to be 18%. The inhibition result in [4] and in data set [5] was “inactive” each time.
Regarding `COC1=CC2C(=O)C(=O)N3C2C(=C1)[C@H](C)CC3(C)C` (stereo partly drawn), the EC50 in data set [1] is 16 µM; in data set [3] (pc-12), “Not Active”. The CC50 in [2] is 77 µM. The inhibition result in [4] and in data set [5] was “inactive” each time.
For `CCCN1C(=O)C(=O)c2cc(C)ccc21`, the EC50 is 5 µM in data set [1] and “Not Active” in [3] (pc-12). Besides, in data set [2], the CC50 turned out to be 98 µM. Also, the inhibition result in data set [4] and in data set [5] was “inactive” each time.
`COC(=O)C[C@H](NC(=O)OC(C)(C)C)C(=O)CF`: the inhibition result in data set [11] and in data set [12] was “Dose-dependent effect” each time.
`CC(C)CC(NC(=O)OCc1ccccc1)C(=O)Oc1ccc2c(=O)c(-c3ccc([N+](=O)[O-])cc3)coc2c1` (stereo not drawn): the values for the EC50 in data set [1] and in data set [3] (pc-12) were 8 µM and “Not Active”, respectively. For the same molecule, in [2], the CC50 turned out to be 38 µM. In addition, the inhibition result in [4] and in data set [5] was “inactive” in each case.
`CCCc1cc(OC(=O)C(CC)c2ccccc2)n(-c2cccc(F)c2)n1` (stereo not drawn): the figures for the EC50 in [1] and in [3] (pc-12) were 11 µM and “Not Active”, respectively. Moreover, in data set [2], the CC50 came to 218 µM. Moreover, the inhibition entry in data set [4] and in data set [5] was “inactive” throughout. Also, the inhibition result in data set [8] is “Active”.
Take `CC1=NN(C(N)=S)C(=O)/C1=N/Nc1ccccc1C(F)(F)F`: the EC50 is 7 µM in [1] and “Not Active” in data set [3] (pc-12). In addition, the CC50 in data set [2] was found to be 49 µM. Further, the inhibition entry in data set [4] and in [5] was “inactive” each time.
`Cc1nc2c(O)c(Br)ccn2c(=O)c1Br`: the EC50 is 2 µM in [1] and “Not Active” in data set [3] (pc-12). The CC50 in [2] worked out at 24 µM. The inhibition result in data set [4] and in data set [5] was “inactive” in each case.
Take `CCCCCCCCC(=O)N(Cc1ccco1)C(C)c1nc2ccccc2c(=O)n1-c1cc(C)ccc1C` (stereo not drawn): the EC50 in [1] is 2 µM; in data set [3] (PC-12, read-out: EC50), 50 µM. Besides, the CC50 in data set [2] was 39 µM. Besides, the inhibition in data set [7] turned out to be 25%. For the same molecule, the inhibition result in data set [4] and in [5] was “inactive” in each case.
As for `COc1c2c(cc3c1C(CC(=O)/C=C/c1ccco1)[N+](C)(C)CC3)OCO2` (stereo not drawn), the EC50 in data set [1] worked out at 9 µM; in [3] (PC-12, read-out: EC50), 22 µM. Moreover, in data set [2], the CC50 was found to be 80 µM. Also, in data set [7], the inhibition was 34%. The inhibition result in data set [4], in data set [8] and in data set [10] was “inactive” in each case. Also, the INH in data set [5] came out at 2.2 mM. The inhibition entry in [9] is “Active”.
As to `COc1ccc(C(CCN(CC2CCOC(C)(C)C2)C(C)=O)c2ccccc2)cc1` (stereo not drawn), the EC50 is 10 µM in data set [1] and “Not Active” in data set [3] (pc-12). Also, the CC50 in [2] stood at 49 µM. The inhibition entry in data set [4] and in data set [5] was “inactive” in each case.
`CCOC(=O)c1cccc(NS(=O)(=O)c2ccc(OC)cc2)c1`: the figures for the EC50 in data set [1] and in data set [3] (pc-12) were 15 µM and “Not Active”, respectively. Also, the CC50 in data set [2] was 119 µM. The inhibition result in data set [4] and in data set [5] was “inactive” in each case.
For `CC(=O)N(C1=C(N(C)C)C(=O)c2ccccc2C1=O)c1ccc(Br)cc1`, the EC50 in [1] was 5 µM; in data set [3] (pc-12), “Not Active”. Besides, in data set [2], the CC50 was 29 µM. Further, the inhibition entry in data set [4] and in [5] was “inactive” each time.
As to `O=c1[nH]c2c(c(=O)[nH]1)C(c1cccc([N+](=O)[O-])c1)C=C(c1ccccc1)O2` (stereo not drawn), the EC50 was 3 µM in data set [1] and “Not Active” in data set [3] (pc-12). For the same molecule, the CC50 in data set [2] came out at 110 µM. Besides, the inhibition entry in [4] and in data set [5] was “inactive” in each case.
As to `CC1CN(C(C)c2nc3ccccc3c(=O)n2-c2ccc(F)cc2)CCC1C(=O)C1CC1` (stereo not drawn), the EC50 was 5 µM in data set [1] and “Not Active” in [3] (pc-12). Moreover, the CC50 in data set [2] was found to be 37 µM. Moreover, the inhibition entry in [4] and in data set [5] was “inactive” each time.
For `CCCCCCN(C(=O)CCCC)C(C)c1nc2ccccc2c(=O)n1-c1ccccc1OC` (stereo not drawn), the EC50 in data set [1] is 9 µM; in data set [3] (pc-12) it was “Not Active”. Further, the CC50 in data set [2] worked out at 26 µM. Moreover, the inhibition entry in data set [4] and in data set [5] was “inactive” each time.
For `Oc1ccc2c(c1)CC1NCCc3cc(O)c(O)c-2c31` (stereo not drawn), the figures for the EC50 in [1] and in data set [3] (pc-12) were 15 µM and “Not Active”, respectively. The CC50 in data set [2] came out at 74 µM. Besides, the inhibition entry in data set [4] and in data set [5] was “inactive” in each case.

The record behind these values is ChEMBL document CHEMBL1221197, “Selective inhibitors of death in mutant huntingtin cells” (Nat Chem Biol, 2007).
